Molecules are shown by their SMILES.

One assay has as its target T1, recombinant human NAE enzyme (Homo sapiens, UniProt Q8TBC4).
T1 construct: His (N); made in house; host or cells: Sf9 insect cells (baculovirus, Bac-to-Bac)
T1 sequence (Q8TBC4 1-463): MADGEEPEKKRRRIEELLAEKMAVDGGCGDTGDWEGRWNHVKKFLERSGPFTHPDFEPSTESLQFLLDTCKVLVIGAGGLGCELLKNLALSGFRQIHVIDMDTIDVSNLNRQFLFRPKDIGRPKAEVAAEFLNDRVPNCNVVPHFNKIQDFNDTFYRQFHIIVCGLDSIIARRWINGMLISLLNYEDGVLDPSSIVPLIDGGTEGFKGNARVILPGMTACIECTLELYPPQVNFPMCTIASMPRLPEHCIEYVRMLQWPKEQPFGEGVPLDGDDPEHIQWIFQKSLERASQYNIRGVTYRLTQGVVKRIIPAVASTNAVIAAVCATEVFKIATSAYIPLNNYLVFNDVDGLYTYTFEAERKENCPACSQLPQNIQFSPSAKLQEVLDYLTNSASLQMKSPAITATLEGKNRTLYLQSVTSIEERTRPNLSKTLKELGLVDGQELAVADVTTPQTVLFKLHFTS
T1 sequence (Q13564 1-534 partner): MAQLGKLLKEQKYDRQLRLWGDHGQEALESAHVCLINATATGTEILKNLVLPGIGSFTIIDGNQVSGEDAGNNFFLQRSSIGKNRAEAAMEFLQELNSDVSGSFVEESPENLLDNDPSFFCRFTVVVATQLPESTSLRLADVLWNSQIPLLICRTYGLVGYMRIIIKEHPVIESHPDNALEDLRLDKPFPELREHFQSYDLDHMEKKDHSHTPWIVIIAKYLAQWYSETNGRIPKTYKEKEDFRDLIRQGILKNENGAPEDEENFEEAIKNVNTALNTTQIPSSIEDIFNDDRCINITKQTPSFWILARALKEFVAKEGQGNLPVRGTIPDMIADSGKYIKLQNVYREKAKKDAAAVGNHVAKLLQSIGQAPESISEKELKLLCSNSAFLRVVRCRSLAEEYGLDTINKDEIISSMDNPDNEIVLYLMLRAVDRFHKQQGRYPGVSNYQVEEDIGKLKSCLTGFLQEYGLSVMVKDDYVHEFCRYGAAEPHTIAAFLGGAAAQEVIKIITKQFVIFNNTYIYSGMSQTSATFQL
Description: Nedd8-Activating Enzyme (NAE) HTRF Assay. It is filed as biochemical. The conditions noted are these: 20 μM ATP, bound given in nM. The protocol: Following manufacturer instructions, baculoviruses were generated with the Bac-to-Bac Expression System (Invitrogen) for the following proteins: untagged NAEα (APPBP1; NP_003896.1), N-terminally His-tagged NAEJ (UBE1C; NP_003959.3), untagged SAEα (SAE1; NP_005491.1), N-terminally His-tagged SAE3 (UBA2; NP_005490.1), N-terminally His-tagged murine UAE (UBE1X; NP_033483). NAEα/His-NAEβ and SAEα/His-SAEβ complexes were generated by co-infection of Sf9 cells, which were harvested after 48 hours. His-mUAE was generated by single infection of Sf9 cells and harvested after 72 hours. Expressed proteins were purified by affinity chromatography (Ni-NTA agarose, Qiagen) using standard buffers. Nedd8-Activating Enzyme (NAE) HTRF Assay. The NAE enzymatic reaction totaled 50 μL and contained 50 mM HEPES (pH 7.5), 0.05% BSA, 5 mM MgCl2, 20 μM ATP, 250 μM GSH, 0.01 μM Ubc12-GST, 0.075 μM Nedd8-Flag and 0.20 nM recombinant human NAE enzyme. The enzymatic reaction mixture, with and without compound inhibitor, was incubated at room temperature 24° C. for 105 minutes in a 384-well plate before termination with 25 μL of Stop/Detection buffer (0.1M HEPES pH 7.5, 0.05% Tween20, 20 mM EDTA, 410 mM KF, 0.53 nM Europium-Cryptate labeled monoclonal anti-FLAG M2 antibody (CisBio International) and 8.125 μg/mL PHYCOLINK goat anti-GST allophycocyanin (XL-APC) antibody (Prozyme)). After incubation for 1 hour at 24° C., quantification of the FRET was performed on the Analyst™ HT 96.384 (Molecular Devices).
Turning to `Cc1nc(N[C@H]2CCc3ccccc32)nc(N[C@@H]2C[C@H](COS(N)(=O)=O)[C@@H](O)[C@H]2O)n1` [Compound I-45, [(1R,2R,3S,4R)-4-({4-[(1S)-2,3-dihydro-1H-inden-1-ylamino]-6-methyl-1,3,5-triazin-2-yl}amino)-2,3-dihydroxycyclopentyl]methyl sulfamate], the IC50 is at most 500 nM. Take `CN(c1ncnc2[nH]c(-c3cccc4ccccc34)nc12)[C@@H]1C[C@@H](COS(N)(=O)=O)[C@@H](O)C1` [Compound I-46, ((1S,2S,4R)-2-hydroxy-4-{methyl[8-(1-naphthyl)-9H-purin-6-yl]amino}-cyclopentyl)methyl sulfamate]: the IC50 was at most 500 nM. Still for that read-out and setting: the same measure for `CO[C@H]1Cc2ccccc2[C@H]1Nc1cc(N[C@@H]2C[C@@H](COS(N)(=O)=O)[C@@H](O)C2)ncn1` [Compound I-47, {(1S,2S,4R)-2-hydroxy-4-[(6-{[(1R,2S)-2-methoxy-2,3-dihydro-1H-inden-1-yl]-amino}pyrimidin-4-yl)amino]cyclopentyl}methyl sulfamate]: at most 500 nM; for `NS(=O)(=O)OC[C@@H]1C[C@@H](Nc2ncnc3[nH]c(-c4ccccc4-c4ccccc4)nc23)C[C@@H]1O` [Compound I-48, {(1S,2S,4R)-4-[(8-biphenyl-2-yl-9H-purin-6-yl)amino]-2-hydroxycyclopentyl}-methyl sulfamate]: over 500 nM. `NS(=O)(=O)OC[C@@H]1C[C@@H](Nc2ncnc3[nH]c(-c4cccc5ccccc45)nc23)C[C@@H]1O` [Compound I-49, ((1S,2S,4R)-2-hydroxy-4-{[8-(1-naphthyl)-9H-purin-6-yl]amino}cyclopentyl)-methyl sulfamate]: the IC50 is at most 500 nM. Consider `CN(C)C[C@H]1Cc2ccccc2[C@H]1Nc1cc(O[C@@H]2C[C@@H](COS(N)(=O)=O)[C@@H](O)C2)ncn1` [Compound I-53, ((1S,2S,4R)-4-{[6-({(1S,2R)-2-[(dimethylamino)methyl]-2,3-dihydro-1H-inden-1-yl}amino)pyrimidin-4-yl]oxy}-2-hydroxycyclopentyl)methyl sulfamate], for which the IC50 was over 500 nM. As to `NS(=O)(=O)OC[C@@H]1C[C@@H](Nc2cc(N[C@H]3CCc4ccccc43)nc(=O)[nH]2)C[C@@H]1O` [Compound I-54, [(1S,2S,4R)-4-({6-[(1S)-2,3-dihydro-1H-inden-1-ylamino]-2-oxo-2,3-dihydropyrimidin-4-yl}amino)-2-hydroxycyclopentyl]methyl sulfamate], the IC50 was over 500 nM. `CO[C@H]1Cc2ccccc2[C@H]1Nc1ncnc(N[C@@H]2C[C@H](COS(N)(=O)=O)[C@@H](O)[C@H]2O)n1` [Compound I-55, {(1R,2R,3S,4R)-2,3-dihydroxy-4-[(4-{[(1R,2S)-2-methoxy-2,3-dihydro-1H-inden-1-yl]amino}-1,3,5-triazin-2-yl)amino]cyclopentyl}methyl sulfamate]: the IC50 was at most 500 nM. Same read-out and setting: the same measure for `NS(=O)(=O)OC[C@@H]1C[C@@H](Nc2c(Cl)cnc3[nH]c(-c4cccc5ccccc45)nc23)C[C@@H]1O` [Compound I-56, ((1S,2S,4R)-4-{[6-chloro-2-(1-naphthyl)-3H-imidazo[4,5-b]pyridin-7-yl]amino}-2-hydroxycyclopentyl)methyl sulfamate]: at most 500 nM; for `NS(=O)(=O)OC[C@@H]1C[C@@H](Nc2ncnc3[nH]c(-c4cccc(Cl)c4)nc23)C[C@@H]1O` [Compound I-60, ((1S,2S,4R)-4-{[8-(3-chlorophenyl)-9H-purin-6-yl]amino}-2-hydroxycyclopentyl)methyl sulfamate]: at most 500 nM. For `NS(=O)(=O)OC[C@@H]1C[C@@H](Nc2ncnc3[nH]c(-c4ccccc4OC(F)(F)F)nc23)C[C@@H]1O` [Compound I-62, [(1S,2S,4R)-2-hydroxy-4-({8-[2-(trifluoromethoxy)phenyl]-9H-purin-6-yl}-amino)cyclopentyl]methyl sulfamate], the IC50 is at most 500 nM. For `NS(=O)(=O)OC[C@@H]1C[C@@H](Oc2ncnc3[nH]c(-c4ccccc4)nc23)C[C@@H]1O` [Compound I-63, {(1S,2S,4R)-2-hydroxy-4-[(8-phenyl-9H-purin-6-yl)oxy]cyclopentyl}methyl sulfamate], the IC50 is at most 500 nM. Turning to `CN(C)c1ccc(-c2nc3c(N[C@@H]4C[C@@H](COS(N)(=O)=O)[C@@H](O)C4)ncnc3[nH]2)c2ccccc12` [Compound I-64, [(1S,2S,4R)-4-({8-[4-(dimethylamino)-1-naphthyl]-9H-purin-6-yl}amino)-2-hydroxycyclopentyl]methyl sulfamate], the IC50 was at most 500 nM. Turning to `CC1(C)C[C@H](Nc2cc(N[C@@H]3C[C@@H](COS(N)(=O)=O)[C@@H](O)C3)ncn2)c2ccccc21` [Compound I-65, {(1S,2S,4R)-4-[(6-{[(1S)-3,3-dimethyl-2,3-dihydro-1H-inden-1-yl]amino}-pyrimidin-4-yl)amino]-2-hydroxycyclopentyl}methyl sulfamate], the IC50 was at most 500 nM. Regarding `CN(C)C(=O)[C@H]1Cc2ccccc2[C@H]1Nc1cc(O[C@@H]2C[C@@H](COS(N)(=O)=O)[C@@H](O)C2)ncn1` [Compound I-66, ((1S,2S,4R)-4-{[6-({(1S,2S)-2-[(dimethylamino)carbonyl]-2,3-dihydro-1H-inden-1-yl}amino)pyrimidin-4-yl]oxy}-2-hydroxycyclopentyl)methyl sulfamate], the IC50 is over 500 nM. As for `COc1cccc(-c2nc3c(N[C@@H]4C[C@@H](COS(N)(=O)=O)[C@@H](O)C4)ncnc3[nH]2)c1OC` [Compound I-67, ((1S,2S,4R)-4-{[8-(2,3-dimethoxyphenyl)-9H-purin-6-yl]amino}-2-hydroxycyclopentyl)methyl sulfamate], the IC50 is at most 500 nM. Take `NS(=O)(=O)OC[C@@H]1C[C@@H](Nc2ncnc3[nH]c(-c4ccccc4OCc4ccccc4)nc23)C[C@@H]1O` [Compound I-68, [(1S,2S,4R)-4-({8-[2-(benzyloxy)phenyl]-9H-purin-6-yl}amino)-2-hydroxycyclopentyl]methyl sulfamate]: the IC50 is at most 500 nM.

For the compound `NS(=O)(=O)OC[C@@H]1C[C@@H](Nc2ncnc3[nH]c(-c4ccccc4)nc23)C[C@@H]1O` [Compound I-69, {(1S,2S,4R)-2-hydroxy-4-[(8-phenyl-9H-purin-6-yl)amino]cyclopentyl}methyl sulfamate], the IC50 is at most 500 nM. Take `CC1(C)C[C@H](Nc2ncnc(N[C@@H]3C[C@@H](COS(N)(=O)=O)[C@@H](O)C3)c2F)c2ccccc21` [Compound I-71, {(1S,2S,4R)-4-[(6-{[(1S)-3,3-dimethyl-2,3-dihydro-1H-inden-1-yl]amino}-5-fluoropyrimidin-4-yl)amino]-2-hydroxycyclopentyl}methyl sulfamate]: the IC50 was at most 500 nM.

The assay is the same for the next values; noted with them: 20 μM ATP, bound given in μM.
In the case of `NS(=O)(=O)OC[C@@H]1C[C@@H](Nc2ncnc3[nH]c(-c4ccccc4-c4ccccc4)nc23)C[C@@H]1O` [Compound I-48, {(1S,2S,4R)-4-[(8-biphenyl-2-yl-9H-purin-6-yl)amino]-2-hydroxycyclopentyl}-methyl sulfamate], the IC50 is under 10000 nM. Consider `CN(C)C[C@H]1Cc2ccccc2[C@H]1Nc1cc(O[C@@H]2C[C@@H](COS(N)(=O)=O)[C@@H](O)C2)ncn1` [Compound I-53, ((1S,2S,4R)-4-{[6-({(1S,2R)-2-[(dimethylamino)methyl]-2,3-dihydro-1H-inden-1-yl}amino)pyrimidin-4-yl]oxy}-2-hydroxycyclopentyl)methyl sulfamate], for which the IC50 is under 10000 nM. In the case of `NS(=O)(=O)OC[C@@H]1C[C@@H](Nc2cc(N[C@H]3CCc4ccccc43)nc(=O)[nH]2)C[C@@H]1O` [Compound I-54, [(1S,2S,4R)-4-({6-[(1S)-2,3-dihydro-1H-inden-1-ylamino]-2-oxo-2,3-dihydropyrimidin-4-yl}amino)-2-hydroxycyclopentyl]methyl sulfamate], the IC50 is under 10000 nM.

For `NS(=O)(=O)OC[C@H]1C[C@@H](O)[C@H](Nc2cc(N[C@H]3CCc4ccccc43)ncn2)C1` [Compound I-58, [(1R,3R,4R)-3-({6-[(1S)-2,3-dihydro-1H-inden-1-ylamino]pyrimidin-4-yl}-amino)-4-hydroxycyclopentyl]methyl sulfamate], the IC50 is over 10000 nM. On to `NS(=O)(=O)OC[C@@H]1C[C@@H](Oc2cc(N3CCc4ccccc4C3)ncn2)C[C@@H]1O` [Compound I-61, ((1S,2S,4R)-4-{[6-(3,4-dihydroisoquinolin-2(1H)-yl)pyrimidin-4-yl]oxy}-2-hydroxycyclopentyl)methyl sulfamate], for which the IC50 was over 10000 nM. In the case of `CN(C)C(=O)[C@H]1Cc2ccccc2[C@H]1Nc1cc(O[C@@H]2C[C@@H](COS(N)(=O)=O)[C@@H](O)C2)ncn1` [Compound I-66, ((1S,2S,4R)-4-{[6-({(1S,2S)-2-[(dimethylamino)carbonyl]-2,3-dihydro-1H-inden-1-yl}amino)pyrimidin-4-yl]oxy}-2-hydroxycyclopentyl)methyl sulfamate], the IC50 was under 10000 nM.

The values are drawn from US9718788B2, “Heteroaryl compounds useful as inhibitors of E1 activating enzymes” (MILLENNIUM PHARMACEUTICALS, INC., priority 2006, dated 2017).
